Each structure is given as a SMILES string.

The subject of test [1] is Botrytis cinerea. Briefly: Microtiterplate test against grey mold Botrytis cinerea. The class given is cell-based. The note with it: comparative example, 405 nm 9 days after inoculation.
The subject of test [2] is Leptosphaeria nodorum. Briefly: Microtiterplate test against wheat leaf spots caused by Leptosphaeria nodorum. The class given is cell-based. To be noted: comparative example, 405 nm 9 days after inoculation.

With `CCOC(C)c1c(F)cccc1Oc1cnc(C)c(C)c1` (stereo not shown) [Example I-16], the “Growth (%) at 31 ppm” value is reported as 34% in test [1] and 40% in test [2].

Turning to `COC(C)c1c(F)cccc1Oc1cnc(C)c(C)c1` (stereo not shown) [State of the art], the “Growth (%) at 31 ppm” value in test [1] stood at 58%; in test [2] it was 68%.
